Measured values reported in ChEMBL document CHEMBL4346687, “Design, synthesis and biological evaluation of novel uracil derivatives bearing 1, 2, 3-triazole moiety as thymidylate synthase (TS) inhibitors and as potential antitumor drugs” (Eur J Med Chem, 2019).

Assays:
[1] = test system: GES1; assay: (§1) Cytotoxicity against human GES-1 cells assessed as reduction in cell viability after 24 hrs by MTT assay; type: cell-based; conditions: ges1, 24 h
[2] = Cytotoxicity against human IOSE-80 cells assessed as reduction in cell viability after 24 hrs by MTT assay; type: cell-based; conditions: for CC50: 24 h; for CC50 at 24 h: IOSE-80 cells
[3] = test system: HepG2; assay: cells; conditions: Homo sapiens, HepG2, 24 h
Description: Antiproliferative activity against human HepG2 cells assessed as reduction in cell viability after 24 hrs by MTT assay

[4] = test system: L02; assay: (§2) Cytotoxicity against human L02 cells assessed as reduction in cell viability after 24 hrs by MTT assay; type: cell-based; conditions: l02, 24 h
[5] = test system: OVCAR-3; assay: cells; conditions: Homo sapiens, OVCAR-3, 24 h
Description: Antiproliferative activity against human OVCAR3 cells assessed as reduction in cell viability after 24 hrs by MTT assay

[6] = Cytotoxicity against human HPAEpic cells assessed as reduction in cell viability after 24 hrs by MTT assay; type: cell-based; conditions: for CC50: 24 h; for CC50 at 24 h: HPAEpic cells
[7] = test system: SGC-7901; assay: cells; conditions: Homo sapiens, SGC-7901, 24 h
Description: Antiproliferative activity against human SGC7901 cells assessed as reduction in cell viability after 24 hrs by MTT assay

[8] = test system: A549; assay: cells; conditions: Homo sapiens, A549, 24 h
Description: Antiproliferative activity against human A549 cells assessed as reduction in cell viability after 24 hrs by MTT assay

[9] = as §1; type: cell-based, GES1; conditions: GES-1 cells
[10] = as §2; type: cell-based; conditions: L02 cells

IC50 [3] [µM] | IC50 [5] [µM] | IC50 [7] [µM] | IC50 [8] [µM] | SMILES | CC50 [1] | CC50 [2] | CC50 [4] | CC50 [6] | CC50 at 24 h [9] [µM] | CC50 at 24 h [2] [µM] | CC50 at 24 h [10] [µM] | CC50 at 24 h [6] [µM]
> 20 | > 20 | > 20 | 7.2 | O=c1[nH]cc(S(=O)(=O)Nc2cccc(-c3cn(-c4cccc(F)c4)nn3)c2)c(=O)[nH]1 | Non-Toxic | Non-Toxic | Non-Toxic | Non-Toxic | – | – | – | –
1.96 | 2.04 | 2.16 | 1.73 | O=c1[nH]cc(S(=O)(=O)Nc2cccc(-c3cn(-c4ccc(Cl)cc4)nn3)c2)c(=O)[nH]1 | – | – | – | – | 11.3 | 6.26 | 9.86 | 14
13.9 | 6.55 | 9.57 | 3.21 | Cc1ccccc1-n1cc(-c2ccccc2NS(=O)(=O)c2c[nH]c(=O)[nH]c2=O)nn1 | – | – | – | – | 19.9 | 17.4 | 56.6 | 9.67
2.02 | 2.75 | 2.46 | 2.31 | O=c1[nH]cc(S(=O)(=O)Nc2ccc(-c3cn(-c4cccc(Cl)c4)nn3)cc2)c(=O)[nH]1 | – | – | – | – | 7.57 | 14.3 | 19 | 13.8
4.03 | 5.37 | 3.01 | 2.73 | O=c1[nH]cc(S(=O)(=O)Nc2cccc(-c3cn(-c4ccccc4Cl)nn3)c2)c(=O)[nH]1 | – | – | – | – | 14 | 17.9 | 11.5 | 12.3
11.6 | 5.63 | 8.35 | 5.56 | Cc1ccc(-n2cc(-c3ccc(NS(=O)(=O)c4c[nH]c(=O)[nH]c4=O)cc3)nn2)cc1 | Non-Toxic | – | Non-Toxic | – | – | 30.5 | – | 29.1
> 20 | 8.03 | 7.27 | 5.96 | O=c1[nH]cc(S(=O)(=O)Nc2ccc(-c3cn(-c4ccccc4F)nn3)cc2)c(=O)[nH]1 | – | – | – | – | > 100 | > 100 | > 100 | 32.6
13.9 | 12.5 | 16 | > 20 | O=c1[nH]cc(S(=O)(=O)Nc2cccc(-c3cn(-c4ccccc4F)nn3)c2)c(=O)[nH]1 | Non-Toxic | Non-Toxic | Non-Toxic | Non-Toxic | – | – | – | –
8.35 | 2.19 | 6.39 | 2.91 | Cc1ccc(-n2cc(-c3ccccc3NS(=O)(=O)c3c[nH]c(=O)[nH]c3=O)nn2)cc1 | – | – | – | – | 32.4 | 33.4 | > 100 | 7.03
> 20 | > 20 | > 20 | 8.13 | O=c1[nH]cc(S(=O)(=O)Nc2ccccc2-c2cn(-c3cccc(F)c3)nn2)c(=O)[nH]1 | Non-Toxic | Non-Toxic | Non-Toxic | – | – | – | – | > 100
4.2 | 3.41 | 3.95 | 2.43 | O=c1[nH]cc(S(=O)(=O)Nc2cccc(-c3cn(-c4cccc(Cl)c4)nn3)c2)c(=O)[nH]1 | – | – | – | – | 26.2 | 18.9 | 8.33 | 10.2
2.24 | 3.17 | 6.52 | 2.74 | O=c1[nH]cc(S(=O)(=O)Nc2ccccc2-c2cn(-c3ccccc3Cl)nn2)c(=O)[nH]1 | – | – | – | – | 20.8 | 11.2 | 22.8 | 17.7
> 20 | 3.54 | 9.43 | 3.63 | Cc1ccc(-n2cc(-c3cccc(NS(=O)(=O)c4c[nH]c(=O)[nH]c4=O)c3)nn2)cc1 | – | – | – | – | 15.8 | 12.8 | 23.1 | 10.6
11.2 | > 20 | 17.2 | 12.7 | O=c1[nH]cc(S(=O)(=O)Nc2cccc(-c3cn(-c4ccccc4)nn3)c2)c(=O)[nH]1 | – | Non-Toxic | – | – | 22.5 | – | > 100 | 41.5
2.46 | 2.18 | 2.27 | 2.34 | O=c1[nH]cc(S(=O)(=O)Nc2ccccc2-c2cn(-c3cccc(Cl)c3)nn2)c(=O)[nH]1 | – | – | – | – | > 100 | > 100 | > 100 | > 100
> 20 | > 20 | > 20 | 9.72 | O=c1[nH]cc(S(=O)(=O)Nc2ccc(-c3cn(-c4ccc(F)cc4)nn3)cc2)c(=O)[nH]1 | – | Non-Toxic | Non-Toxic | – | > 100 | – | – | > 100
12.5 | 15.3 | 10.8 | 7.37 | O=c1[nH]cc(S(=O)(=O)Nc2ccccc2-c2cn(-c3ccccc3F)nn2)c(=O)[nH]1 | – | – | – | – | > 100 | > 100 | > 100 | > 100
2.23 | 4.27 | 2.68 | 2.81 | O=c1[nH]cc(S(=O)(=O)Nc2ccc(-c3cn(-c4ccccc4Cl)nn3)cc2)c(=O)[nH]1 | – | – | – | – | 16.4 | 22.2 | 19.3 | 17
9.57 | 6.23 | 9.23 | 5.47 | Cc1ccccc1-n1cc(-c2cccc(NS(=O)(=O)c3c[nH]c(=O)[nH]c3=O)c2)nn1 | – | – | – | – | 21.5 | 36.4 | 15.3 | 10.2
1.98 | 2.16 | 1.83 | 1.21 | O=c1[nH]cc(S(=O)(=O)Nc2ccc(-c3cn(-c4ccc(Cl)cc4)nn3)cc2)c(=O)[nH]1 | – | – | – | – | 23.3 | 17.7 | 42.9 | 14.8
6.16 | 6.65 | 11.8 | 6.79 | O=c1[nH]cc(S(=O)(=O)Nc2ccccc2-c2cn(-c3ccccc3)nn2)c(=O)[nH]1 | – | – | – | – | > 100 | 10.5 | 10.6 | 14.3
> 20 | 7.49 | 17.4 | 6.96 | Cc1cccc(-n2cc(-c3ccc(NS(=O)(=O)c4c[nH]c(=O)[nH]c4=O)cc3)nn2)c1 | – | – | – | – | 28.3 | 29.3 | 39 | 31.3
7.05 | 4.08 | 9.1 | 3.55 | Cc1cccc(-n2cc(-c3cccc(NS(=O)(=O)c4c[nH]c(=O)[nH]c4=O)c3)nn2)c1 | – | – | – | – | 18.5 | 23.4 | 28.3 | 23.7
3.62 | 3.15 | 3.51 | 1.87 | Cc1cccc(-n2cc(-c3ccccc3NS(=O)(=O)c3c[nH]c(=O)[nH]c3=O)nn2)c1 | – | – | – | – | 23.7 | 15.8 | 21.9 | 12.3
